Data taken from PubChem BioAssay AID1963839 (Molecular Pharmacology Branch, DTP, NCI, 2024).

System: 817829-284-R-J1-PDC complex spheroid viability
Experiment: Anticancer human tumor 817829-284-R-J1-PDC patient-derived colon adenocarcinoma cell line growth inhibition [POLQ]
Details: for IC50: curve of first compound; for viability, T/C: stronger effect = lower value
In short: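 Three-cell-type spheroids modelling solid tumor plus stroma served as the readout system; POL inhibitors were tested individually and in combination, concentration ranges set by clinical Cmax where known.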

[1] = second compound 0.0316 µM, first compound 0.0316 µM
[2] = second compound 0.0316 µM, first compound 0.1 µM
[3] = second compound 0.0316 µM, first compound 0.316 µM
[4] = second compound 0.0316 µM, first compound 1 µM
[5] = second compound 0.1 µM, first compound 0.0316 µM
[6] = second compound 0.1 µM, first compound 0.1 µM
[7] = second compound 0.1 µM, first compound 0.316 µM
[8] = second compound 0.1 µM, first compound 1 µM
[9] = second compound 0.316 µM, first compound 0.0316 µM
[10] = second compound 0.316 µM, first compound 0.1 µM
[11] = second compound 0.316 µM, first compound 0.316 µM
[12] = second compound 0.316 µM, first compound 1 µM
[13] = second compound 1 µM, first compound 0.0316 µM
[14] = second compound 1 µM, first compound 0.1 µM
[15] = second compound 1 µM, first compound 0.316 µM
[16] = second compound 1 µM, first compound 1 µM
[17] = second compound 3.16 µM, first compound 0.0316 µM
[18] = second compound 3.16 µM, first compound 0.1 µM
[19] = second compound 3.16 µM, first compound 0.316 µM
[20] = second compound 3.16 µM, first compound 1 µM
[21] = second compound 10 µM, first compound 0.0316 µM
[22] = second compound 10 µM, first compound 0.1 µM
[23] = second compound 10 µM, first compound 0.316 µM
[24] = second compound 10 µM, first compound 1 µM
[25] = second compound 0.0316 µM, first compound 0.00316 µM
[26] = second compound 0.0316 µM, first compound 0.01 µM
[27] = second compound 0.1 µM, first compound 0.00316 µM
[28] = second compound 0.1 µM, first compound 0.01 µM
[29] = second compound 0.316 µM, first compound 0.00316 µM
[30] = second compound 0.316 µM, first compound 0.01 µM
[31] = second compound 1 µM, first compound 0.00316 µM
[32] = second compound 1 µM, first compound 0.01 µM
[33] = second compound 3.16 µM, first compound 0.00316 µM
[34] = second compound 3.16 µM, first compound 0.01 µM
[35] = second compound 10 µM, first compound 0.00316 µM
[36] = second compound 10 µM, first compound 0.01 µM
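Further: spheroids exposed to compounds for 7 days.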
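Wherever viability, T/C is given: 100% = DMSO vehicle-treated spheroids.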

Structure (SMILES): CNCc1ccc(-c2[nH]c3cc(F)cc4c3c2CCNC4=O)cc1 + Nc1ccc(C#CCN(C(=O)Cc2ncc(C(F)(F)F)cc2C(F)(F)F)c2ccc(F)cc2)nn1
- IC50 (second compound 0.0316 µM): 6740 nM
- IC50 (second compound 0.1 µM): 7780 nM
- IC50 (second compound 0.316 µM): > 10000 nM
- IC50 (second compound 1 µM): > 10000 nM
- IC50 (second compound 3.16 µM): 7270 nM
- IC50 (second compound 10 µM): 8040 nM
- viability, T/C [1]: 85.2%
- viability, T/C [2]: 83.8%
- viability, T/C [3]: 86.4%
- viability, T/C [4]: 73.8%
- viability, T/C (second compound 0.0316 µM, first compound 3.16 µM): 67.4%
- viability, T/C (second compound 0.0316 µM, first compound 10 µM): 41.2%
- viability, T/C [5]: 81%
- viability, T/C [6]: 97%
- viability, T/C [7]: 83%
- viability, T/C [8]: 73.8%
- viability, T/C (second compound 0.1 µM, first compound 3.16 µM): 65.3%
- viability, T/C (second compound 0.1 µM, first compound 10 µM): 45.8%
- viability, T/C [9]: 80.6%
- viability, T/C [10]: 88.7%
- viability, T/C [11]: 82.8%
- viability, T/C [12]: 60.8%
- viability, T/C (second compound 0.316 µM, first compound 3.16 µM): 65%
- viability, T/C (second compound 0.316 µM, first compound 10 µM): 52.9%
- viability, T/C [13]: 97.7%
- viability, T/C [14]: 86.5%
- viability, T/C [15]: 90.1%
- viability, T/C [16]: 73.3%
- viability, T/C (second compound 1 µM, first compound 3.16 µM): 74.3%
- viability, T/C (second compound 1 µM, first compound 10 µM): 48%
- viability, T/C [17]: 103%
- viability, T/C [18]: 83.6%
- viability, T/C [19]: 83.2%
- viability, T/C [20]: 85.8%
- viability, T/C (second compound 3.16 µM, first compound 3.16 µM): 83.6%
- viability, T/C (second compound 3.16 µM, first compound 10 µM): 37.3%
- viability, T/C [21]: 86.2%
- viability, T/C [22]: 75.7%
- viability, T/C [23]: 76.9%
- viability, T/C [24]: 79.5%
- viability, T/C (second compound 10 µM, first compound 3.16 µM): 75.2%
- viability, T/C (second compound 10 µM, first compound 10 µM): 44.1%

Structure (SMILES): COc1cccc(OCCCN)c1-c1cc(Nc2cnc(C#N)cn2)n[nH]1 + Nc1ccc(C#CCN(C(=O)Cc2ncc(C(F)(F)F)cc2C(F)(F)F)c2ccc(F)cc2)nn1
- IC50 (second compound 0.0316 µM): 5.44 nM
- IC50 (second compound 0.1 µM): 5.2 nM
- IC50 (second compound 0.316 µM): 5.7 nM
- IC50 (second compound 1 µM): 5.69 nM
- IC50 (second compound 3.16 µM): 5.41 nM
- IC50 (second compound 10 µM): 5.7 nM
- viability, T/C [25]: 82.4%
- viability, T/C [26]: 13.8%
- viability, T/C [1]: 5.45%
- viability, T/C [2]: 4.83%
- viability, T/C [3]: 4.44%
- viability, T/C [4]: 3.65%
- viability, T/C [27]: 77.1%
- viability, T/C [28]: 14.6%
- viability, T/C [5]: 4.6%
- viability, T/C [6]: 5.23%
- viability, T/C [7]: 3.56%
- viability, T/C [8]: 3%
- viability, T/C [29]: 87%
- viability, T/C [30]: 14.7%
- viability, T/C [9]: 4.16%
- viability, T/C [10]: 5.93%
- viability, T/C [11]: 4.07%
- viability, T/C [12]: 3.09%
- viability, T/C [31]: 84.7%
- viability, T/C [32]: 16.7%
- viability, T/C [13]: 5.79%
- viability, T/C [14]: 4.2%
- viability, T/C [15]: 4.04%
- viability, T/C [16]: 2.8%
- viability, T/C [33]: 84%
- viability, T/C [34]: 11.2%
- viability, T/C [17]: 5.75%
- viability, T/C [18]: 5.62%
- viability, T/C [19]: 3.65%
- viability, T/C [20]: 3.11%
- viability, T/C [35]: 87.2%
- viability, T/C [36]: 14.5%
- viability, T/C [21]: 5.81%
- viability, T/C [22]: 3.93%
- viability, T/C [23]: 4.01%
- viability, T/C [24]: 3.39%

Structure (SMILES): CCc1c2c(nc3ccc(O)cc13)-c1cc3c(c(=O)n1C2)COC(=O)[C@]3(O)CC + COC1C(OC(N)=O)C(O)C(Oc2ccc3c(O)c(NC(=O)c4ccc(O)c(CC=C(C)C)c4)c(=O)oc3c2C)OC1(C)C
- IC50 (second compound 0.0316 µM): < 3.16 nM
- IC50 (second compound 0.1 µM): < 3.16 nM
- IC50 (second compound 0.316 µM): < 3.16 nM
- IC50 (second compound 1 µM): < 3.16 nM
- IC50 (second compound 3.16 µM): < 3.16 nM
- IC50 (second compound 10 µM): < 3.16 nM
- viability, T/C [25]: 25.5%
- viability, T/C [26]: 17.6%
- viability, T/C [1]: 10.6%
- viability, T/C [2]: 8.89%
- viability, T/C [3]: 5.32%
- viability, T/C [4]: 3.77%
- viability, T/C [27]: 17.9%
- viability, T/C [28]: 16.7%
- viability, T/C [5]: 11%
- viability, T/C [6]: 7%
- viability, T/C [7]: 5.78%
- viability, T/C [8]: 3%
- viability, T/C [29]: 21.2%
- viability, T/C [30]: 15%
- viability, T/C [9]: 11.7%
- viability, T/C [10]: 8.14%
- viability, T/C [11]: 5.95%
- viability, T/C [12]: 2.76%
- viability, T/C [31]: 18.1%
- viability, T/C [32]: 16.1%
- viability, T/C [13]: 11.3%
- viability, T/C [14]: 7.95%
- viability, T/C [15]: 8.47%
- viability, T/C [16]: 3.04%
- viability, T/C [33]: 14.1%
- viability, T/C [34]: 16.3%
- viability, T/C [17]: 11%
- viability, T/C [18]: 7.05%
- viability, T/C [19]: 4.82%
- viability, T/C [20]: 3.32%
- viability, T/C [35]: 23.3%
- viability, T/C [36]: 14.8%
- viability, T/C [21]: 12.8%
- viability, T/C [22]: 6.77%
- viability, T/C [23]: 5.07%
- viability, T/C [24]: 2.89%
